# In article PMC8765437, “GSK3640254 Is a Novel HIV-1 Maturation Inhibitor with an Optimized Virology Profile” (Antimicrobial Agents and Chemotherapy, 2022):
# Where two headings read alike, the source gives them in different places.
# Legend:
# HIV-1 laboratory strains = experiment: Laboratory strains, reverse transcriptase activity in MT-2 cells; format: cell-based
# Experimental: Virus yields were measured in dose-response experiments by either luciferase activity in human T-cells (CEM-NKR-CCR5-Luc), extracellular reverse transcriptase activity in MT-2 cells (T-tropic viruses), or extracellular p24 antigen in PM1 cells (M-tropic viruses).
# Multiple-cycle assays using recombinant viruses or clinical isolates were used to assess MI antiviral activity as described previously ([10]). pNLRepRlucP373S (the P373S change is in the Gag gene and converts an outlier polymorphism in the NL4-3 gene to the prevalent amino acid in the population) plasmids containing SDMs in Gag or gag/pr regions from clinical isolates were transfected into HEK 293T cells, and the supernatant containing recombinant virus was harvested after 4 to 5 days. Virus was used to infect MT-2 cells in the presence of a 3-fold serially diluted compound at a final dimethyl sulfoxide (DMSO) concentration of 1%. The inocula of the reporter viruses were determined based on the luciferase activity detected on day 4 postinfection. The MOI (ratio of infectious virions to target cells) of reporter-free laboratory strains and clinical isolates was 0.005, as derived from a tissue culture infectious dose study. Clinical isolates or reporter-free viruses were examined in the reporter CEM-NKR-CCR5-Luc cells or PBMCs at MOIs ranging from 0.005 to 0.01. Each infection started with a drug-free preincubation of the cell-virus mixtures, performed at 37°C and 5% CO2 for either 1 h at 2 times the final cell density (reporter viruses) or 1 h (reporter-free laboratory strains) or 3 h (clinical isolates) using cell pellets in 0.5 mL of medium. After preincubation, cell-virus mixtures were added to compound-containing 96-well plates for a final cell density of either 10,000 (MT-2 cells for reporter viruses), 20,000 (MT-2 and PM1 cells for reporter-free laboratory strains), 200,000 (PBMCs for clinical isolates), or 500,000 (CEM-NKR-CCR5-Luc for reporter-free laboratory strains) cells per well. The CEM-NKR-CCR5-Luc cell assay was performed in the presence of Polybrene (10 μg/mL). Virus growth was determined on days 4 to 5 postinfection for reporter variants or days 5 to 11 for the other viruses. The reporter viruses were detected by a luciferase assay according to manufacturer protocols (Brite-Glo luciferase kit [Promega] for CEM-NKR-CCR5-Luc cells and Dual-Luciferase Reporter 1000 assay system [Promega] for the other cells), and luminescence was detected on a Wallac Trilux. The growth of clinical isolates in PBMCs was quantitated by reverse transcriptase activity in a 96-well scintillation proximity assay (SPA). Twenty microliters of culture supernatants was mixed with 40 μL of reaction cocktail (62.5 mM Tris-HCl [pH 7.8], 100 mM KCl, 0.0625% NP-40, 2.5 mM dithiothreitol [DTT], 6.25 mM MgCl2, 1 mM EGTA, 6.25 μg/mL of poly rA, 2.5 μg/mL of streptavidin SPA beads prebound with biotinylated-dT12-18, and 1 μCi of [^3H]TTP). Mixtures were incubated at 37°C for ∼3 h and quenched with 100 μl of 0.25 M EDTA per well. Luminescence was detected on a Wallac Trilux programmed for tritium counting with SPA beads in opaque plates. The growth of the reporter-free laboratory M-tropic strains and clinical isolates was monitored by a p24 enzyme-linked immunosorbent assay (ELISA; PerkinElmer Life Sciences, Waltham, MA) performed on culture supernatants.
# Maximal percent inhibition values were calculated as MPI = 100 – (mean signals at the 2 highest concentrations of compound/mean signal of 2 no-drug control wells) × 100.
# [1] = tested on: HIV-1 viruses containing Gag region SDMs; experiment: Single-cycle infection assay with Gag SDM viruses; format: cell-based
# Experimental: Single-cycle infection assays were performed as described previously ([10]). Half-maximal effective concentration values were calculated as the compound concentration that inhibits 50% of the maximal signal (no-drug control), correcting for background. Background was determined as the residual signal observed upon inhibition at the highest concentration of a control protease inhibitor, nelfinavir (3 μM). Half-maximal fold change effective concentration versus WT values were calculated by dividing the EC50 of the recombinant virus by the EC50 of WT RepRlucNL4-3 virus run in parallel.
smiles,measurement,setting,value
"C=C(C)[C@@H]1CC[C@]2(NCCN3CCS(=O)(=O)CC3)CC[C@]3(C)[C@H](CC[C@@H]4[C@@]5(C)CC=C(c6ccc(C(=O)O)cc6)C(C)(C)[C@@H]5CC[C@]43C)[C@@H]12 [GSK’795, reference compound]",EC50,"HIV-1 laboratory strains; Human immunodeficiency virus 1, HXB2, MT2, HXB2, footnote b: RT activity in MT-2 cells, read-out: GSK’795 EC50 ± SD",9.3 ± 3.9 nM
same,EC50,"HIV-1 laboratory strains; Human immunodeficiency virus 1, IIIB, MT2, IIIB, footnote b: RT activity in MT-2 cells, read-out: GSK’795 EC50 ± SD",2.5 ± 0.8 nM
same,EC50,"HIV-1 laboratory strains; Human immunodeficiency virus 1, MT2, LAI, footnote b: RT activity in MT-2 cells, read-out: GSK’795 EC50 ± SD",2.4 ± 0.8 nM
same,EC50,"HIV-1 laboratory strains; Human immunodeficiency virus 1, MT2, MN, footnote b: RT activity in MT-2 cells, read-out: GSK’795 EC50 ± SD",1 nM
same,EC50,"HIV-1 laboratory strains; Human immunodeficiency virus 1, MT2, RF, head footnote b: RT activity in MT-2 cells unless otherwise noted, read-out: GSK’795 EC50 ± SD",6.9 ± 2.8 nM
same,EC50,"HIV-1 laboratory strains; Human immunodeficiency virus 1, NL43, MT2, NL4-3, first value in cell, footnote b: RT activity in MT-2 cells, read-out: GSK’795 EC50 ± SD",3.9 ± 2.2 nM
same,EC50,"HIV-1 laboratory strains; Human immunodeficiency virus 1, NL43, MT2, NL4-3, second value in cell, read-out: EC50 (converted)",19 nM
same,MPI,[1]; A364V,8%
same,MPI,[1]; A366V,3%
same,MPI,[1]; A366V/V370M,3%
same,MPI,[1]; H358Y/ΔT371,18%
same,EC50,"[1]; Human immunodeficiency virus 1, read-out: Mean ± SD EC50, A364V",> 3000 nM
same,EC50,"[1]; Human immunodeficiency virus 1, read-out: Mean ± SD EC50, A366V",> 3000 nM
same,EC50,"[1]; Human immunodeficiency virus 1, read-out: Mean ± SD EC50, A366V/V370M",> 3000 nM
same,EC50,"[1]; Human immunodeficiency virus 1, read-out: Mean ± SD EC50, H358Y/ΔT371",> 3000 nM
same,EC50,"[1]; Human immunodeficiency virus 1, read-out: Mean ± SD EC50, I333V/V362I",> 3000 nM
same,EC50,"[1]; Human immunodeficiency virus 1, read-out: Mean ± SD EC50, I333V/V370",> 3000 nM
same,EC50,"[1]; Human immunodeficiency virus 1, read-out: Mean ± SD EC50, I333V/V370A",> 3000 nM
same,EC50,"[1]; Human immunodeficiency virus 1, read-out: Mean ± SD EC50, M367V",> 3000 nM
same,EC50,"[1]; Human immunodeficiency virus 1, read-out: Mean ± SD EC50, R361K/V362I/L363M",> 3000 nM
same,EC50,"[1]; Human immunodeficiency virus 1, read-out: Mean ± SD EC50, T33N/V370A",30 nM
same,EC50,"[1]; Human immunodeficiency virus 1, read-out: Mean ± SD EC50, T332N/V370A",30 nM
same,EC50,"[1]; Human immunodeficiency virus 1, read-out: Mean ± SD EC50, T332S/V362I/prR41G",> 3000 nM
same,EC50,"[1]; Human immunodeficiency virus 1, read-out: Mean ± SD EC50, V362I",14 ± 6 nM
same,EC50,"[1]; Human immunodeficiency virus 1, read-out: Mean ± SD EC50, V362I/A366V",> 3000 nM
same,EC50,"[1]; Human immunodeficiency virus 1, read-out: Mean ± SD EC50, V362I/A366V/V370M",> 3000 nM
same,EC50,"[1]; Human immunodeficiency virus 1, read-out: Mean ± SD EC50, V362I/H219Q",66 nM
same,EC50,"[1]; Human immunodeficiency virus 1, read-out: Mean ± SD EC50, V362I/H219Q/T332S",710 nM
same,EC50,"[1]; Human immunodeficiency virus 1, read-out: Mean ± SD EC50, V362I/V370A",> 3000 nM
same,EC50,"[1]; Human immunodeficiency virus 1, read-out: Mean ± SD EC50, V362I/V370M",> 3000 nM
same,EC50,"[1]; Human immunodeficiency virus 1, read-out: Mean ± SD EC50, V370A",6 nM
same,EC50,"[1]; Human immunodeficiency virus 1, read-out: Mean ± SD EC50, V370M",13 ± 11 nM
same,EC50,"[1]; Human immunodeficiency virus 1, read-out: Mean ± SD EC50, Wild type",5 ± 3 nM
same,EC50,"[1]; Human immunodeficiency virus 1, read-out: Mean ± SD EC50, ΔV370",110 nM
same,MPI,[1]; I333V/V362I,−30%
same,MPI,[1]; I333V/V370,−36%
same,MPI,[1]; I333V/V370A,10%
same,MPI,[1]; M367V,36%
same,MPI,[1]; R361K/V362I/L363M,36%
same,MPI,[1]; T33N/V370A,70%
same,MPI,[1]; T332N/V370A,70%
same,MPI,[1]; T332S/V362I/prR41G,−30%
same,MPI,[1]; V362I,68%
same,MPI,[1]; V362I/A366V,−109%
same,MPI,[1]; V362I/A366V/V370M,−62%
same,MPI,[1]; V362I/H219Q,60%
same,MPI,[1]; V362I/H219Q/T332S,52%
same,MPI,[1]; V362I/V370A,31%
same,MPI,[1]; V362I/V370M,51%
same,MPI,[1]; V370A,84%
same,MPI,[1]; V370M,78%
same,MPI,[1]; Wild type,94%
same,MPI,[1]; ΔV370,60%
